Reference: ChEMBL document CHEMBL5528044, “Exploring the Function of (+)-Naltrexone Precursors: Their Activity as TLR4 Antagonists and Potential in Treating Morphine Addiction” (J Med Chem, 2024)
Active and inactive are the calls of the source. The rule behind the calls is not given here.

Experiments:
[1] = Half life in Balb/c mouse at 2 mg/kg,iv administration and measured upto 24 hrs by LC-MS/MS analysis; type: ADME, organism-based; settings: in vivo
[2] = Volume of distribution at steady state in Balb/c mouse at 2 mg/kg,iv administration and measured upto 24 hrs by LC-MS/MS analysis; type: ADME, organism-based; settings: in vivo, read-out: Vdss
[3] = AUC (0 to infinity) in Balb/c mouse at 2 mg/kg,iv administration and measured upto 24 hrs by LC-MS/MS analysis; type: ADME, organism-based; settings: in vivo
[4] = Ratio of drug concentration in brain to plasma in Balb/c mouse at 2 mg/kg,iv measured after 30 mins by LC-MS/MS analysis; type: ADME, organism-based; settings: 0.5 h
[5] = Tmax in Balb/c mouse at 20 mg/kg,po administration and measured upto 24 hrs by LC-MS/MS analysis; type: ADME, organism-based; settings: in vivo
[6] = Half life in Balb/c mouse at 20 mg/kg,po administration and measured upto 24 hrs by LC-MS/MS analysis; type: ADME, organism-based; settings: in vivo
[7] = AUC (0 to infinity) in Balb/c mouse at 20 mg/kg,po administration and measured upto 24 hrs by LC-MS/MS analysis; type: ADME, organism-based; settings: in vivo
[8] = Oral bioavailability in Balb/c mouse at 20 mg/kg administration and measured upto 24 hrs by LC-MS/MS analysis; type: ADME, organism-based; settings: in vivo
[9] = Cytotoxicity against mouse BV-2 cells incubated for 24 hrs by crystal violet staining based assay; type: toxicity, cell-based
Toll-like receptor 4 = molecular target: T1, Toll-like receptor 4 (Mus musculus, UniProt Q9QUK6); assay: Antagonist activity at TLR4 in mouse BV-2 cells assessed as inhibition of LPS-induced TNF-alpha production by ELISA; type: cell-based
T1 sequence (Q9QUK6 whole entry): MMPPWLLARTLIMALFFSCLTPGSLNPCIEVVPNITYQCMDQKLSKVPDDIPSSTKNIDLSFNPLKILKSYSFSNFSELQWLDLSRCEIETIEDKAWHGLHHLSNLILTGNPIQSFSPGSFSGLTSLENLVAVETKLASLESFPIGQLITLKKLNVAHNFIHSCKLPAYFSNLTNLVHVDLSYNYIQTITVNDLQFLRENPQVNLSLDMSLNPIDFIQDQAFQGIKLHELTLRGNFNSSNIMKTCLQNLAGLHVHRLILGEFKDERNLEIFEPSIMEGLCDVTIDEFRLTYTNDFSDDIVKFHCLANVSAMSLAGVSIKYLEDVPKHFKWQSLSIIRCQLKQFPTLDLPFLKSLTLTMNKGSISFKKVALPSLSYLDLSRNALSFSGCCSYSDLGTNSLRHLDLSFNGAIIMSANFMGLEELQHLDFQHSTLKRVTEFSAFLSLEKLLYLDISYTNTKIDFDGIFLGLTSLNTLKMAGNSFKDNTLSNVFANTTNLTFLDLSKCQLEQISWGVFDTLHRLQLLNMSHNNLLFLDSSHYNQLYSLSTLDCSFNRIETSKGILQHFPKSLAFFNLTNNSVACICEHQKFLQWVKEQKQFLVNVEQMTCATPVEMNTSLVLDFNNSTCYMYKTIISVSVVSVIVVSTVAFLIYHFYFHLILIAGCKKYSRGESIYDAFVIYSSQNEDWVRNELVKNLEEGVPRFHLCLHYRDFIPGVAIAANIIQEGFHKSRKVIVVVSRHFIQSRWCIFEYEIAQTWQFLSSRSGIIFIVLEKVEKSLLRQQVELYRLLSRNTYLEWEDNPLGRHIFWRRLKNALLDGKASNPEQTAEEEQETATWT

[10] = molecular target: T2, Toll-like receptor 4 (Mus musculus) (UniProt Q9QUK6); assay: Antagonist activity at TLR4 signaling pathway in mouse BV-2 cells assessed as inhibition of LPS-induced TRIF recruitment at 5 uM incubated for 1 hr by co-immunoprecipitation based Western blot analysis; type: cell-based; settings: filed as antagonist
T2 sequence (whole entry): T1 sequence (Q9QUK6 whole entry)

[11] = molecular target: T2, Toll-like receptor 4 (Mus musculus); assay: Antagonist activity at TLR4 signaling pathway in mouse BV-2 cells assessed as inhibition of LPS-induced MyD88 recruitment at 5 uM incubated for 1 hr by co-immunoprecipitation based Western blot analysis; type: cell-based
[12] = molecular target: T2, Toll-like receptor 4 (Mus musculus); assay: Antagonist activity at TLR4 signaling pathway in mouse BV-2 cells assessed as downregulation of LPS-induced IKKbeta phosphorylation at 5 uM incubated for 1 hr by Western blot analysis; type: cell-based; settings: filed as antagonist
[13] = molecular target: T2, Toll-like receptor 4 (Mus musculus); assay: Antagonist activity at TLR4 signaling pathway in mouse BV-2 cells assessed as downregulation of LPS-induced JNK phosphorylation at 5 uM incubated for 1 hr by Western blot analysis; type: cell-based; settings: filed as antagonist
[14] = molecular target: T2, Toll-like receptor 4 (Mus musculus); assay: Antagonist activity at TLR4 signaling pathway in mouse BV-2 cells assessed as downregulation of LPS-induced IRF-3 phosphorylation at 5 uM incubated for 1 hr by Western blot analysis; type: cell-based; settings: filed as antagonist
[15] = molecular target: T2, Toll-like receptor 4 (Mus musculus); assay: Antagonist activity at TLR4 signaling pathway in mouse BV-2 cells assessed as downregulation of LPS-induced IRAK1 phosphorylation at 5 uM incubated for 1 hr by Western blot analysis; type: cell-based
Mus musculus [16] = assay: Inhibition of morphine-induced addiction behavior in Balb/c mouse assessed as decrease in locomotor activity at 0.005 to 0.2 mg/kg,ip administrated on day 4 to 10 by open-field test; type: functional, organism-based; settings: dose 0.005-0.2 mg/kg, time 7.0 day
Mus musculus [17] = assay: Inhibition of morphine-induced addiction behavior in Balb/c mouse assessed as decrease in total distance traveled in field at 0.005 to 0.2 mg/kg,ip administrated on day 4 to 10 by open-field test; type: functional, organism-based; settings: dose 0.005-0.2 mg/kg, time 7.0 day
[18] = Toxicity in morphine-induced Balb/c mouse assessed body weight loss at 0.2 mg/kg,ip administrated for 1 week; type: organism-based; settings: in vivo, 168 h, time 1 weeks
Mus musculus [19] = assay: Inhibition of morphine-induced addiction behavior in Balb/c mouse assessed reduction in CPP score at 0.2 mg/kg,ip administrated for 6 consecutive days by conditioned place preference assay; type: functional, organism-based
Mus musculus [20] = assay: Inhibition of chronic morphine-induced microglia activation in Balb/c mouse assessed as reduction in Iba1 expression in brain ventral tegmental area region at 0.2 mg/kg,ip administrated for 6 consecutive days by immunofluorescence staining based analysis; type: functional, organism-based
Mus musculus [21] = assay: Inhibition of chronic morphine-induced microglia activation in Balb/c mouse assessed as reduction in TNF-alpha mRNA expression in brain medial prefrontal cortex region at 0.2 mg/kg,ip administrated for 6 consecutive days by qPCR analysis; type: functional, organism-based
Mus musculus [22] = assay: Inhibition of chronic morphine-induced microglia activation in Balb/c mouse assessed as reduction in TNF-alpha mRNA expression in brain nucleus accumbens region at 0.2 mg/kg,ip administrated for 6 consecutive days by qPCR analysis; type: functional, organism-based
Mus musculus [23] = assay: Inhibition of chronic morphine-induced microglia activation in Balb/c mouse assessed as reduction in microglia cell number in brain medial prefrontal cortex region at 0.2 mg/kg,ip administrated for 6 consecutive days by immunofluorescence staining based analysis; type: functional, organism-based
Mus musculus [24] = assay: Inhibition of chronic morphine-induced microglia activation in Balb/c mouse assessed as reduction in microglia cell number in brain ventral tegmental area region at 0.2 mg/kg,ip administrated for 6 consecutive days by immunofluorescence staining based analysis; type: functional, organism-based
Mus musculus [25] = assay: Inhibition of chronic morphine-induced microglia activation in Balb/c mouse assessed as reduction in microglia cell number in brain nucleus accumbens region at 0.2 mg/kg,ip administrated for 6 consecutive days by immunofluorescence staining based analysis; type: functional, organism-based

Structure (SMILES)	half-life [1]	Vd [2]	AUC(0-inf) [3]	BPR [4]	Tmax [5]	half-life [6]	AUC(0-inf) [7]	bioavailability [8]	IC50 at 24 h [9]	IC50 (Toll-like receptor 4)	Activity [10]	Activity [11]	Activity [12]	Activity [13]	Activity [14]	Activity [15]	inhibition (Mus musculus [16])	inhibition (Mus musculus [17])	Activity [18]	inhibition (Mus musculus [19])	also measured
CN1CC[C@@]23c4c5ccc(O)c4O[C@@H]2C(=O)C=C[C@]3(O)[C@@H]1C5 (single isomer, unassigned)	2.2 h	75.5 L/kg	71.8 ng·h/mL	18.4%	1.2 h	8.9 h	295 ng·h/mL	41.1%	13.7 µM	2.3 µM	Active	inactive	Active	Active	Active	inactive	Dose-Dependent Effect	inactive	Non-Toxic	Active	inhibition (Mus musculus [20]): Active; inhibition (Mus musculus [21]): Active; inhibition (Mus musculus [22]): Active; inhibition (Mus musculus [23]): Active; inhibition (Mus musculus [24]): Active; inhibition (Mus musculus [25]): inactive
COc1ccc2c3c1O[C@@H]1C(=O)C=C[C@]4(O)[C@H](C2)N(C)CC[C@@]314 (single isomer, unassigned)	0.6 h	97 L/kg	16.5 ng·h/mL	73.6%	1.2 h	2.2 h	89.6 ng·h/mL	54.3%	23.6 µM	4.2 µM	Active	inactive	Active	Active	Active	inactive	Dose-Dependent Effect	inactive	Non-Toxic	Active	inhibition (Mus musculus [20]): Active; inhibition (Mus musculus [21]): Active; inhibition (Mus musculus [22]): Active; inhibition (Mus musculus [23]): Active; inhibition (Mus musculus [24]): Active; inhibition (Mus musculus [25]): inactive
